Drawing on US9914736B2, “TrKA kinase inhibitors, compositions and methods thereof” (Merck Sharp & Dohme Corp., priority 2014, dated 2018), this text covers IC50 for 23 compounds.

The target of the experiment is human TrkA receptor (Homo sapiens (Human), UniProt P04629). The experiment is described as follows: DiscoverX PathHunter TrkA functional assay. The experiment is classed as cell-based. To be noted: U2OS cells expressing human TrkA-ProLink, Shc1-EA and p75NTR; compound 1 h, then NGF at ~80% of maximal response for 3 h; luminescence.
human TrkA receptor, sequence (P04629 33-796): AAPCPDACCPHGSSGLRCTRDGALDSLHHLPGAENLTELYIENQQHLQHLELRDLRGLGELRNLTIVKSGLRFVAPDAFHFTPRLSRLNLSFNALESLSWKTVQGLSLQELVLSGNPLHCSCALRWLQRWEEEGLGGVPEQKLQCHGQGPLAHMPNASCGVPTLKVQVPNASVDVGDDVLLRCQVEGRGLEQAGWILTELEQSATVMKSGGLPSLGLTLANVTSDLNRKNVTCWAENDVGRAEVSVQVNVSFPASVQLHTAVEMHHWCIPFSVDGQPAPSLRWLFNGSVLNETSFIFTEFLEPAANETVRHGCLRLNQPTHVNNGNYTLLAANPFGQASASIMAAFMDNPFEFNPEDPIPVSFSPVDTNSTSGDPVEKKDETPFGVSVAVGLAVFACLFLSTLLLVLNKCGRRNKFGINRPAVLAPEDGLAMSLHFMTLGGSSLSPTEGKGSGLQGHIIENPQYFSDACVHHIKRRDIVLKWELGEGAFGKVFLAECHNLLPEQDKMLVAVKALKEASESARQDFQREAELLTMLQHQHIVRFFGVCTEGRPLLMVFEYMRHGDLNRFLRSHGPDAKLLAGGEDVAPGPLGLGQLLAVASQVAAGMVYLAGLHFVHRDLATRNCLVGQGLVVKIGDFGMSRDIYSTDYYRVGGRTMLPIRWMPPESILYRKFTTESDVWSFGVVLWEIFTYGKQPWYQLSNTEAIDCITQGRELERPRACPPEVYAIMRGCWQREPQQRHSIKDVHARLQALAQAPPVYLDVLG

Experimental: TrkA functional activity was measured using a DiscoverX PathHunter assay. In this assay, U2OS cells express the human TrkA receptor as a fusion with the weakly complementing fragment of B-galactosidase, which DiscoverX calls “Prolink (PK)”; additionally, Shc1 is fused with a larger fragment, which is called “Enzyme Acceptor (EA)”. Activation of the TrkA receptor, upon NGF addition, results in the kinase domain being phosphorylated, resulting in subsequent recruitment of Shc1-EA protein. That recruitment results in an active B-galactosidase enzyme that is detected by addition of a chemiluminescent substrate. The human p75^NTR protein was also expressed as a co-receptor for NGF.
All reagents were purchased from DiscoverX, except for the receptor agonists (NGF, BDNF, NT3) which were purchased from Peprotech. Cells were expanded and frozen into cryovials, and stored in the vapor phase of liquid nitrogen, and thawed immediately before use. Thawed cells were added to a 384-well plate at 7500 cells/well, and allowed to incubate overnight. Compound at various concentrations was added the following morning and allowed to incubate on cells for 1 h. Then, NGF was added at a concentration sufficient to elicit ˜80% of a maximal response and allowed to incubate for 3 h at ambient temperature. DiscoverX PathHunter detection reagent was then added and the plate was further incubated for 1 h in the dark. The plate was then read via luminescence on the Perkin Elmer Envision.

What is called IC50 is the midpoint of a concentration-inhibition curve. As for `O=C(Nc1cc(-c2ccc(=O)[nH]n2)nn1-c1ccccc1)c1ccc(C(F)(F)F)cc1Cl` [Compound 10, 2-chloro-N-[3-(6-oxo-1,6-dihydropyridazin-3-yl)-1-phenyl-1H-pyrazol-5-yl]-4-(trifluoromethyl)benzamide], it took 290 nM to reach half-maximal inhibition (IC50).
Then `Cn1ccc(-c2cc(C(=O)Nc3cc(-c4ccc(=O)[nH]n4)nn3-c3ccccc3)ccc2C(F)(F)F)n1` [Compound 11, 3-(1-methyl-1H-pyrazol-3-yl)-N-[3-(6-oxo-1,6-dihydropyridazin-3-yl)-1-phenyl-1H-pyrazol-5-yl]-4-(trifluoromethyl)benzamide], with 5.5 nM; and `Cn1ccc(-c2cc(C(=O)Nc3c(-c4ccccc4)ncn3C)ccc2C(F)(F)F)n1` [Compound 12, N-(1-methyl-4-phenyl-1H-imidazol-5-yl)-3-(1-methyl-1H-pyrazol-3-yl)-4-(trifluoromethyl)benzamide], with 19 nM; and `Cc1nc(-c2ccccc2)c(NC(=O)c2ccc(C(F)(F)F)c(-c3ccn(C)n3)c2)[nH]1` [Compound 13, N-(2-methyl-4-phenyl-1H-imidazol-5-yl)-3-(1-methyl-1H-pyrazol-3-yl)-4-(trifluoromethyl)benzamide], with 38 nM.
As for `Cc1nc(-c2ccccc2)c(NC(=O)c2ccc(C(F)(F)F)c(-c3ccn(C)n3)c2)n1C` [Compound 14, N-(1,2-dimethyl-4-phenyl-1H-imidazol-5-yl)-3-(1-methyl-1H-pyrazol-3-yl)-4-(trifluoromethyl)benzamide], the IC50 is 20 nM.
Regarding `Cc1nc(NC(=O)c2ccc(C(F)(F)F)c(-c3ccn(C)n3)c2)n(-c2ccccc2)n1` [Compound 15, N-(3-methyl-1-phenyl-1H-1,2,4-triazol-5-yl)-3-(1-methyl-1H-pyrazol-3-yl)-4-(trifluoromethyl)benzamide], the midpoint of inhibition, the IC50, lay at 150 nM. This IC50 is about 7.5-fold higher than that of the compound before.
Then `Cn1ccc(-c2cc(C(=O)Nc3cc(-c4n[nH]c(=O)n4C)nn3-c3ccccc3)ccc2C(F)(F)F)n1` [Compound 16, N-[3-(4-methyl-5-oxo-4,5-dihydro-1H-1,2,4-triazol-3-yl)-1-phenyl-1H-pyrazol-5-yl]-3-(1-methyl-1H-pyrazol-3-yl)-4-(trifluoromethyl)benzamide], with 46 nM; and `Cn1ccc(-c2cc(C(=O)Nc3oncc3-c3ccccc3)ccc2C(F)(F)F)n1` [Compound 17, 3-(1-methyl-1H-pyrazol-3-yl)-N-(4-phenylisoxazol-5-yl)-4-(trifluoromethyl)benzamide], with 170 nM; and `Cn1ccc(-c2cc(C(=O)Nc3cn[nH]c3-c3ccccc3)ccc2C(F)(F)F)n1` [Compound 18, 3-(1-methyl-1H-pyrazol-3-yl)-N-(5-phenyl-1H-pyrazol-4-yl)-4-(trifluoromethyl)benzamide], with 18 nM.
For the compound `Cn1ccc(-c2cc(C(=O)Nc3snnc3-c3ccccc3)ccc2C(F)(F)F)n1` [Compound 19, 3-(1-methyl-1H-pyrazol-3-yl)-N-(4-phenyl-1,2,3-thiadiazol-5-yl)-4-(trifluoromethyl)benzamide], the concentration for half-maximal inhibition (IC50) turned out to be 2800 nM.
Then `Cn1ccc(-c2cc(C(=O)Nc3cc(-c4ccccc4)nn3C)ccc2C(F)(F)F)n1` [Compound 20, N-(1-methyl-3-phenyl-1H-pyrazol-5-yl)-3-(1-methyl-1H-pyrazol-3-yl)-4-(trifluoromethyl)benzamide], with 1400 nM; and `Cc1csc(-c2cc(C(=O)Nc3cc(-c4ccncc4)nn3-c3ccccc3)ccc2Cl)n1` [Compound 21, 4-chloro-3-(4-methyl-1,3-thiazol-2-yl)-N-(1-phenyl-3-pyridin-4-yl-1H-pyrazol-5-yl)benzamide], with 2.7 nM.
`Cc1cc(-n2nc(CC(=O)Nc3ccccn3)cc2NC(=O)c2ccc(C(F)(F)F)c(-c3ccn(C)n3)c2)[nH]n1` [Compound 22, N-{5′-methyl-3-[2-oxo-2-(pyridin-2-ylamino)ethyl]-2′H-1,3′-bipyrazol-5-yl}-3-(1-methyl-1H-pyrazol-3-yl)-4-(trifluoromethyl)benzamide] had a 50% inhibitory concentration (IC50) of 5.6 nM.
In turn, `Cc1c(Cl)cc(C(=O)Nc2cc(-c3ccncc3)nn2-c2ccccc2)cc1Cl` [Compound 23, 3,5-dichloro-4-methyl-N-(1-phenyl-3-pyridin-4-yl-1H-pyrazol-5-yl)benzamide] showed a half-maximal inhibitory concentration (IC50) of 670 nM.
With `O=C(Nc1cc(-c2ccncc2)nn1-c1ccccc1)c1ccc(C(F)(F)F)c(-n2cccn2)c1` [Compound 24, N-(1-phenyl-3-pyridin-4-yl-1H-pyrazol-5-yl)-3-(1H-pyrazol-1-yl)-4-(trifluoromethyl)benzamide], the IC50 came out at 21 nM.
In turn, `Cc1cc(-n2nc(C(=O)NCc3ccns3)cc2NC(=O)c2ccc(C(F)(F)F)c(-c3ccn(C)n3)c2)[nH]n1` [Compound 25, N-(isothiazol-5-ylmethyl)-5′-methyl-5-({[3-(1-methyl-1H-pyrazol-3-yl)-4-(trifluoromethyl)phenyl]carbonyl}amino)-2′H-1,3′-bipyrazole-3-carboxamide] showed an IC50 of 1.7 nM.
Then `O=C(Nc1cc(-c2ccncc2)nn1-c1ccc(F)cc1)c1ccc(C(F)(F)F)c(-c2ncns2)c1` [Compound 26, N-[1-(4-fluorophenyl)-3-pyridin-4-yl-1H-pyrazol-5-yl]-3-(1,2,4-thiadiazol-5-yl)-4-(trifluoromethyl)benzamide], with 350 nM.
`Cc1cc(-n2nc(C(=O)NC3CN(C)C3)cc2NC(=O)c2ccc(C(F)(F)F)c(-c3ccn(C)n3)c2)[nH]n1` [Compound 27, 5′-methyl-N-(1-methylazetidin-3-yl)-5-({[3-(1-methyl-1H-pyrazol-3-yl)-4-(trifluoromethyl)phenyl]carbonyl}amino)-2′H-1,3′-bipyrazole-3-carboxamide] registered a half-maximal inhibitory concentration (IC50) of 10 nM. Compared with the last compound, the IC50 is about 35-fold lower.
Then `Cn1ccc(-c2cc(C(=O)Nc3cc(Cc4ccc(=O)[nH]n4)nn3-c3ccccc3)ccc2C(F)(F)F)n1` [Compound 28, 3-(1-methyl-1H-pyrazol-3-yl)-N-{3-[(6-oxo-1,6-dihydropyridazin-3-yl)methyl]-1-phenyl-1H-pyrazol-5-yl}-4-(trifluoromethyl)benzamide], with 6.6 nM.
Then `Cc1nc(-c2cc(C(=O)Nc3cc(-c4ccncc4)nn3-c3ccc(F)cc3)ccc2C(F)(F)F)no1` [Compound 29, N-[1-(4-fluorophenyl)-3-pyridin-4-yl-1H-pyrazol-5-yl]-3-(5-methyl-1,2,4-oxadiazol-3-yl)-4-(trifluoromethyl)benzamide], with 530 nM.
Turning to `Cc1cccc(-c2cc(C(=O)Nc3cc(-c4ccncc4)nn3-c3ccc(F)cc3)ccc2C(F)(F)F)n1` [Compound 30, N-[1-(4-fluorophenyl)-3-pyridin-4-yl-1H-pyrazol-5-yl]-3-(6-methylpyridin-2-yl)-4-(trifluoromethyl)benzamide], the 50% inhibitory concentration (IC50) was 5.5 nM.
Then `Cc1cccnc1-c1cc(C(=O)Nc2cc(-c3ccncc3)nn2-c2ccc(F)cc2)ccc1C(F)(F)F` [Compound 31, N-[1-(4-fluorophenyl)-3-pyridin-4-yl-1H-pyrazol-5-yl]-3-(3-methylpyridin-2-yl)-4-(trifluoromethyl)benzamide], with 860 nM.
In the case of `Cc1nc(-c2ccccc2)c(NC(=O)c2ccc(C(F)(F)F)c(-c3ccn(C)n3)c2)s1` [Compound 32, N-(2-methyl-4-phenyl-1,3-thiazol-5-yl)-3-(1-methyl-1H-pyrazol-3-yl)-4-(trifluoromethyl)benzamide], 6 nM corresponded to half-maximal inhibition (IC50).
